“And” between values parts separate entries of the source, which are not always exact repeats. Equal values may be shown once.
Each compound was assayed against Nonstructural protein 3 (Zika virus, UniProt A0A024AXB9) (assay: Functional biochemical assay to identify treatments for viral infectious disease that targets Zika NS2B-NS3 protease. Utilizing a direct enzyme activity measurement method, reading the fluorescence intensity is used to characterize the relative potency of inhibitors as IC50.).
Sequence of Nonstructural protein 3 (A0A024AXB9 whole entry): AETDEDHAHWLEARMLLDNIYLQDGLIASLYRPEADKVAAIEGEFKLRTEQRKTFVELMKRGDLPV
Set-up: species or system PRVABC59

| IC50 | SMILES |
| --- | --- |
| > 99.5 µM | CCn1nc(C)c(CN(C)Cc2ccc3c(c2)CCNCC3)c1C |
| > 99.5 µM | CC[C@@H](C)c1nc(C)cc(N2CCC(n3ncc(N)c3C(F)(F)F)CC2)n1 |
| > 99.5 µM | CCc1cc(F)ccc1CC(=O)N1CCCc2cc(CCN)ccc21 |
| > 99.5 µM | O=C(O)c1cc(Cl)ccc1NS(=O)(=O)c1ccc(OCc2ccncc2)cc1 |
| > 99.5 µM | Cc1noc(C)c1C(=O)N[C@@H](C(=O)Nc1cccc(CN)c1)c1ccc(OCc2ccccc2)cc1 |
| > 99.5 µM | Cc1cc(C)c([C@@H](NC(=O)OCc2ccccc2)C(=O)Nc2cccc(CN)c2)c(C)c1 |
| > 99.5 µM | O=C(NCCO)c1cc(Cl)ccc1NS(=O)(=O)c1ccc(Oc2ccccc2Cl)cc1 |
| > 99.5 µM | Cn1cc(C(=O)N[C@@H](C(=O)Nc2cccc(CN)c2)c2ccc(OCc3ccccc3)cc2)cn1 |
| > 99.5 µM | CCc1cc(COc2ccc(S(=O)(=O)Nc3ccc(Cl)cc3C(=O)O)cc2)no1 |
| > 99.5 µM | O=C(O)c1cc2c(cc1NS(=O)(=O)c1ccc(F)cc1)CCC2 |
| 12.6 µM | CCc1ccccc1COc1ccc(S(=O)(=O)Nc2ccc(Cl)cc2C(=O)O)cc1 |
| 33.9 µM and 39.5 µM | NCc1cccc(NC(=O)C[C@H](NC(=O)OCc2ccccc2)c2ccc(OC(F)(F)F)cc2)c1 |
| > 99.5 µM | Cc1ccc(F)c2c1CCN(Cc1ccn(C3CNC3)c1)C2 |
| > 99.5 µM | COc1ccc(CNC(=O)[C@@H](NC(=O)OCc2ccccc2)c2ccc(OCc3ccccc3)cc2)cn1 |
| > 99.5 µM | CCn1nccc1-c1cccc([C@@H](NC(=O)OCc2ccccc2)C(=O)Nc2cccc(CN)c2)c1 |
| > 99.5 µM | CC(C)(C)c1cc(N2CCN(c3cccc4[nH]ncc34)CC2)nc(C(=O)O)n1 |
| > 99.5 µM | NCCNC(=O)c1cc(Cl)ccc1NS(=O)(=O)c1ccc(Oc2ccccc2Cl)cc1 |
| > 99.5 µM | Cc1ocnc1COc1ccc(S(=O)(=O)Nc2ccc(Cl)cc2C(=O)O)cc1 |
| > 99.5 µM | O=C(N[C@@H](C(=O)NCc1cn[nH]c1)c1ccc(OCc2ccccc2)cc1)OCc1ccccc1 |
| > 99.5 µM | O=C(O)c1cc(Cl)ccc1NS(=O)(=O)c1ccc(OCc2nnnn2C2CCC2)cc1 |
| > 99.5 µM | COC(=O)[C@@H](C)NC(=O)c1cc(Cl)ccc1NS(=O)(=O)c1ccc(Oc2ccccc2Cl)cc1 |
| 10.9 µM and 8.65 µM and 8.23 µM and 9.33 µM | NCc1cccc(NC(=O)[C@H](NC(=O)OCc2ccccc2)c2ccc(Br)c(Cl)c2)c1 |
| > 99.5 µM | O=C(Nc1cccnc1)c1cc(Cl)ccc1NS(=O)(=O)c1ccc(Oc2ccccc2Cl)cc1 |
| > 99.5 µM | O=C(O)c1cc(Cl)ccc1NS(=O)(=O)c1ccc(OCc2cncnc2)cc1 |

| IC50 | SMILES |
| --- | --- |
| > 99.5 µM | Cc1cccnc1COc1ccc(S(=O)(=O)Nc2ccc(Cl)cc2C(=O)O)cc1 |
| > 99.5 µM | O=C(N[C@@H](C(=O)NCc1cnccn1)c1ccc(OCc2ccccc2)cc1)OCc1ccccc1 |
| > 99.5 µM | O=C(O)c1cc(Cl)ccc1NS(=O)(=O)c1ccc(NC2CCNCC2)nc1 |
| > 99.5 µM | N#Cc1c(C(F)F)cccc1N1CCC(n2ncc(N)c2C(F)(F)F)CC1 |
| > 99.5 µM | CCn1c(=O)c(N2C[C@H]3C[C@@]3(C(F)F)C2)nc2ccccc21 |
| > 99.5 µM | Cc1cc(F)cc(N(C)C(=O)c2ccc(C3(CN)CC3)cc2)c1 |
| > 99.5 µM | CC(C)(C)OC(=O)N1C[C@@H](O)[C@H](c2c[nH]c3ccccc23)C1 |
| > 99.5 µM | Cn1c(COc2ccc(S(=O)(=O)Nc3ccc(Cl)cc3C(=O)O)cc2)nnc1C1CC1 |
| 94.4 µM | NCc1cccc(NC(=O)[C@H]2[C@H]3CCCC[C@H]3[C@@H]2NC(=O)OCc2ccccc2)c1 |
| > 99.5 µM | N[C@H]1CC[C@H](NC(=O)[C@@H](NC(=O)OCc2ccccc2)c2ccc(OCc3ccccc3)cc2)CC1 |
| 93.7 µM | NCc1ccnc(CNC(=O)[C@@H](NC(=O)OCc2ccccc2)c2ccc(OCc3ccccc3)cc2)c1 |
| > 99.5 µM | Cc1n[nH]cc1CC(=O)N1CCCC12CCN(C(=O)c1ccnc(CO)c1)CC2 |
| 79.2 µM | NCc1cccc(NC(=O)[C@@H](NC(=O)OCc2ccccc2)c2ccc(C(F)(F)F)cc2)c1 |
| > 99.5 µM | CC[C@H]1CN(C(=O)c2ccc(C3(CN)CC3)cc2)Cc2ccccc21 |
| > 99.5 µM | Cc1ccc2c(c1)CN(C(=O)c1ccc(C3(CN)CC3)cc1)C(C)(C)C2 |
| 21.7 µM | NCc1cccc(NC(=O)[C@@H]2Cc3ccc(OCc4ccccc4)cc3CN2C(=O)OCc2ccccc2)c1 |
| > 99.5 µM | NCC1(c2ccc(C(=O)N3CCc4scc(Br)c4C3)cc2)CC1 |
| 65.6 µM | NCc1cccc(CNC(=O)[C@@H](NC(=O)OCc2ccccc2)c2ccc(OCc3ccccc3)cc2)n1 |
| 67 µM | O=C(O)c1cc(Cl)cc(F)c1NS(=O)(=O)c1ccc(Oc2ccccc2Cl)cc1 |
| 16.3 µM and 13.9 µM | NCCc1ccc(CNC(=O)[C@@H](NC(=O)OCc2ccccc2)c2ccc(OCc3ccccc3)cc2)cc1 |
| > 99.5 µM | Cn1c(C(=O)N2CCCc3ccc(C(F)F)cc32)cc2c1CCNC2 |
| > 99.5 µM | NCCCc1ccc(C(=O)N2CC(c3cccc(Br)c3)C2)cc1 |
| > 99.5 µM | N[C@H]1CC[C@H](CNC(=O)[C@@H](NC(=O)OCc2ccccc2)c2ccc(OCc3ccccc3)cc2)CC1 |
| > 99.5 µM | Cc1ccc(CNC(=O)[C@@H](NC(=O)OCc2ccccc2)c2ccc(OCc3ccccc3)cc2)cn1 |

| IC50 | SMILES |
| --- | --- |
| > 99.5 µM | CN(C(=O)c1ccc2c(c1)[C@H](CN)CCC2)C1CCN(CC(F)F)CC1 |
| > 99.5 µM | NCc1cccc(NC(=O)[C@@H](NC(=O)c2cccnc2)c2ccc(OCc3ccccc3)cc2)c1 |
| 25.1 µM | C[C@@H](Oc1ccc(S(=O)(=O)Nc2ccc(Cl)cc2C(=O)O)cc1)c1ccccc1F |
| > 99.5 µM | CC(C)CNC(=O)c1cc(Cl)ccc1C=Cc1ccc(Oc2ccccc2Cl)cc1 |
| > 99.5 µM | Cc1n[nH]c2cc(C(=O)N3CCC(C)(NC(=O)[C@H]4C[C@H](N(C)C)C4)CC3)ccc12 |
| 14.2 µM and 11.5 µM | NCc1ccc(CNC(=O)[C@@H](NC(=O)OCc2ccccc2)c2ccc(OCc3ccccc3)cc2)cc1 |
| > 99.5 µM | NCc1ccccc1C1CCN(C(=O)[C@@]23CNC[C@]2(C(F)(F)F)C3)CC1 |
| > 99.5 µM | O=C(N[C@H](C(=O)NCc1ccccc1CO)c1ccc(OCc2ccccc2)cc1)OCc1ccccc1 |
| 33.1 µM | NCc1cccc(NC(=O)[C@H](NC(=O)c2ccccc2Cl)c2ccc(OCc3ccccc3)cc2)c1 |
| > 99.5 µM | O=C(NC1CCCCC1)c1cc(Cl)ccc1NS(=O)(=O)c1ccc(Oc2ccccc2Cl)cc1 |
| 47.9 µM | NCc1cccc(NC(=O)[C@@H](NC(=O)OCc2ccccc2)c2ccc(OCc3ncccn3)cc2)c1 |
| 41.3 µM and 51.2 µM and 13 µM and 11.9 µM | NCc1cccc(NC(=O)[C@H]2[C@H]3CCCCC[C@H]3[C@H]2NC(=O)OCc2ccccc2)c1 |
| 88.1 µM | Cc1cc(-c2cccc([C@@H](NC(=O)OCc3ccccc3)C(=O)Nc3cccc(CN)c3)c2)ccn1 |
| > 99.5 µM | NCc1ccccc1C1CCN(C(=O)[C@H]2CCN3CC[C@H]2C3)CC1 |
| > 99.5 µM | NCc1cccc(NC(=O)[C@H]2c3ccc(Br)cc3OCCN2C(=O)OCc2ccccc2)c1 |
| 58.2 µM | NC[C@H]1CC[C@@H](CNC(=O)[C@@H](NC(=O)OCc2ccccc2)c2ccc(OCc3ccccc3)cc2)CC1 |
| > 99.5 µM | Cc1ccc([C@@H](NC(=O)OCc2ccccc2)C(=O)Nc2cccc(CN)c2)cc1C |
| > 99.5 µM | CS(=O)(=O)NCc1cccc(CNC(=O)[C@@H](NC(=O)OCc2ccccc2)c2ccc(OCc3ccccc3)cc2)c1 |
| > 99.5 µM | C[C@@H](O)c1cccc(N2CCC(c3nc(N)ncc3F)CC2)n1 |
| 65.4 µM | NCc1cccc(NC(=O)[C@H](NS(=O)(=O)c2ccc(Oc3ccccc3Cl)cc2)c2ccc(OCc3ccccc3)cc2)c1 |
| > 99.5 µM | CCCCCN(C)C(=O)c1cc(Cl)ccc1NS(=O)(=O)c1ccc(Oc2ccccc2Cl)cc1 |
| > 99.5 µM | O=C(O)c1cc(Cl)ccc1NS(=O)(=O)c1ccc(OCc2cccnc2)cc1 |
| 54.6 µM | CN(C)CCc1ccc(CNC(=O)[C@@H](NC(=O)OCc2ccccc2)c2ccc(OCc3ccccc3)cc2)cc1 |
| > 99.5 µM | O=C(N[C@H](C(=O)NCc1cccc(CO)n1)c1ccc(OCc2ccccc2)cc1)OCc1ccccc1 |

| IC50 | SMILES |
| --- | --- |
| 39.4 µM | O=C(N[C@@H](C(=O)NCc1cccc2c1CCNC2)c1ccc(OCc2ccccc2)cc1)OCc1ccccc1 |
| > 99.5 µM | O=C(N[C@H](C(=O)NCc1cccc(CO)c1)c1ccc(OCc2ccccc2)cc1)OCc1ccccc1 |
| > 99.5 µM | C[C@@H](NC(=O)C1CCN(c2cccc(C(N)=O)n2)CC1)[C@H]1CCCNC1 |
| > 99.5 µM | C[C@@H](NC(=O)c1cc(Cl)ccc1NS(=O)(=O)c1ccc(Oc2ccccc2Cl)cc1)C(=O)O |
| > 99.5 µM | Cc1cc(CNC(=O)[C@@H](NC(=O)OCc2ccccc2)c2ccc(OCc3ccccc3)cc2)cc(C)n1 |
| 58.3 µM | NCc1cccc(NC(=O)C[C@H](NC(=O)OCc2ccccc2)c2ccc(C(F)(F)F)cc2)c1 |
| > 99.5 µM | O=C(O)c1c(F)cc(F)cc1NS(=O)(=O)c1ccc(Oc2ccccc2Cl)cc1 |
| 81.2 µM | NC[C@H]1CC[C@H](NC(=O)[C@@H](NC(=O)OCc2ccccc2)c2ccc(OCc3ccccc3)cc2)CC1 |
| > 99.5 µM | CCN(CC(=O)NC)C(=O)c1cc(Cl)ccc1NS(=O)(=O)c1ccc(Oc2ccccc2Cl)cc1 |
| > 99.5 µM | N[C@@H](Cc1c[nH]cn1)C(=O)N1CCC2(CC1)OCCc1cc(O)ccc12 |
| > 99.5 µM | CN(C)CCNC(=O)[C@H](NC(=O)OCc1ccccc1)c1ccc(OCc2ccccc2)cc1 |
| 61.4 µM | NCc1ccc2c(c1)CCC[C@H]2NCc1cc(Cl)cc2c1OCC2 |
| > 99.5 µM | O=C(N[C@@H](C(=O)NCC1CCNCC1)c1ccc(OCc2ccccc2)cc1)OCc1ccccc1 |
| 80.3 µM | NC[C@H]1CC[C@H](CNC(=O)[C@@H](NC(=O)OCc2ccccc2)c2ccc(OCc3ccccc3)cc2)CC1 |
| > 99.5 µM | CCn1ccnc(N2CC(=O)[C@@H](c3c[nH]c4ccccc34)C2)c1=O |
| 53.8 µM | NCc1cccc(NC(=O)[C@H]2c3ccc(Br)cc3CCN2C(=O)OCc2ccccc2)c1 |
| 32 µM | O=S(=O)(Nc1ccc(Cl)cc1CN(CC1CC1)CC1CC1)c1ccc(Oc2ccccc2Cl)cc1 |
| > 99.5 µM | O=C(NCc1nnn[nH]1)c1cc(Cl)ccc1NS(=O)(=O)c1ccc(Oc2ccccc2Cl)cc1 |
| > 99.5 µM | CCc1ccc([C@@H](NC(=O)OCc2ccccc2)C(=O)Nc2cccc(CN)c2)cc1 |
| 22.8 µM | NCc1ccc(-c2ccc(OCC3CCNCC3)nc2-c2ccc(-c3ccoc3)cc2)cc1 |
| > 99.5 µM | Nc1ccc(CNC(=O)[C@@H](NC(=O)OCc2ccccc2)c2ccc(OCc3ccccc3)cc2)nc1 |

| SMILES | IC50 |
| --- | --- |
| N[C@H]1CCc2cc(-c3ccn(-c4ccccc4)n3)ccc2C1 | > 99.5 µM |
